# Measurements from ChEMBL document CHEMBL1133926, “Optimization of a screening lead for factor VIIa/TF” (Bioorg Med Chem Lett, 2001).
# Active and inactive are the calls of the source. The rule behind the calls is not given here.
# Experiments:
# [1] = species: Homo sapiens; assay: (§1) In vitro anticoagulant activity in human plasma to double the prothrombin time (2x PT); assay type: functional
# [2] = biological target: T1, Plasminogen (Homo sapiens, UniProt P00747); assay: Relative affinity for Plasmin compared to compound 1
# [3] = biological target: T2, Prothrombin (Homo sapiens, UniProt P00734); assay: Binding affinity towards Thrombin with respect to compound 1
# [4] = biological target: T3, Urokinase-type plasminogen activator (Homo sapiens, UniProt P00749); assay: Relative binding affinity for urokinase-type plasminogen activator
# [5] = biological target: T4, Serine protease 1 (Homo sapiens, UniProt P07477); assay: Relative binding affinity towards Trypsin
# [6] = biological target: T5, Coagulation factor X (Homo sapiens, UniProt P00742); assay: Binding affinity towards coagulation factor X with respect to compound 1
# [7] = biological target: T2, Prothrombin; assay: Binding affinity for Coagulation factor II relative to compound 1
# [8] = biological target: T5, Coagulation factor X; assay: Binding affinity for Coagulation factor X with respect to compound 1
# [9] = biological target: T2, Prothrombin; assay: Binding affinity towards Coagulation factor II
# [10] = biological target: T5, Coagulation factor X; assay: Binding affinity towards Coagulation factor X
# [11] = biological target: Coagulation factor VII/tissue factor (Homo sapiens, UniProt P08709); assay: Binding affinity for factor VIIa/TF; assay type: protein-complex assay
# [12] = biological target: T1, Plasminogen; assay: Binding affinity towards Plasmin
# [13] = biological target: T3, Urokinase-type plasminogen activator; assay: Binding affinity towards urokinase-type plasminogen activator (microPa)
# [14] = biological target: T4, Serine protease 1; assay: Binding affinity towards Trypsin
# [15] = biological target: T6, Coagulation factor VII (Homo sapiens, UniProt P08709); assay: Binding affinity towards factor VIIa/TF was determined
# T6 sequence (P08709 whole entry): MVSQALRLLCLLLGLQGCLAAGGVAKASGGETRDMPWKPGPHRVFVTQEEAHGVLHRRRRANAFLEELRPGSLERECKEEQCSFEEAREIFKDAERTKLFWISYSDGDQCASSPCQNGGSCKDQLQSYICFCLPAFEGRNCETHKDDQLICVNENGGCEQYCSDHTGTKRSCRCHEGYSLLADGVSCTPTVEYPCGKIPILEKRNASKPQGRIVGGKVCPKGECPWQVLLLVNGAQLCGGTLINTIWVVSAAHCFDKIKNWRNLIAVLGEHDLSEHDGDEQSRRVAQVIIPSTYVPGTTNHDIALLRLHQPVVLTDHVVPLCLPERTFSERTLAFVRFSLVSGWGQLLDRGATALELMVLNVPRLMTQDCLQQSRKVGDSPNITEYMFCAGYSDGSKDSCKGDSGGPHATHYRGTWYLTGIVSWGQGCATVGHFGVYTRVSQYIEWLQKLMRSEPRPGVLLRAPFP
# [16] = as §1; assay type: functional
# [17] = species: Homo sapiens; assay: In vitro anticoagulant activity in human plasma to double the prothrombin time (2xP T); Not active; assay type: functional, cell-free
# Sequence of Coagulation factor VII/tissue factor (P13726 33-295 partner limits assumed, one chain of several): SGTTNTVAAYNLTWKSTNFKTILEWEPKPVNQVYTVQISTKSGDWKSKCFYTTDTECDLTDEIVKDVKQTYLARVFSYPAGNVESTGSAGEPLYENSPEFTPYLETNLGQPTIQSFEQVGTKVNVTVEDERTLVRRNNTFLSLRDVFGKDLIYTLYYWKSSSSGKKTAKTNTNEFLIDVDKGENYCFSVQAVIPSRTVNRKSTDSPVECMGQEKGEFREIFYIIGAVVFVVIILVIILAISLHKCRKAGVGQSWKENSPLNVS
# T1 sequence (P00747 97-580 limits assumed): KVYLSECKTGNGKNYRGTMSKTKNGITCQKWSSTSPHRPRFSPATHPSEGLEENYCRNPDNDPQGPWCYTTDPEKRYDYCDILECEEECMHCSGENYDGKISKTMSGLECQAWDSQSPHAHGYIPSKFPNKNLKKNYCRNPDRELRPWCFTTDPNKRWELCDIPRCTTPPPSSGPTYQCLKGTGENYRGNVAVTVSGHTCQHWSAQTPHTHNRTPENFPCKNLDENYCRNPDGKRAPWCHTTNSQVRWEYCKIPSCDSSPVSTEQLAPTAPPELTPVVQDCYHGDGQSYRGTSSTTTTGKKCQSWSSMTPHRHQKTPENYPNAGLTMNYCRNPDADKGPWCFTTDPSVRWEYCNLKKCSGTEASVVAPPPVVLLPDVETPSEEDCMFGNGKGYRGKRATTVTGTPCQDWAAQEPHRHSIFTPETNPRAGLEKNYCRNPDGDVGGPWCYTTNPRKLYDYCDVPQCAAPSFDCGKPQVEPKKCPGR
# T1 sequence (P00747 581-810 limits assumed): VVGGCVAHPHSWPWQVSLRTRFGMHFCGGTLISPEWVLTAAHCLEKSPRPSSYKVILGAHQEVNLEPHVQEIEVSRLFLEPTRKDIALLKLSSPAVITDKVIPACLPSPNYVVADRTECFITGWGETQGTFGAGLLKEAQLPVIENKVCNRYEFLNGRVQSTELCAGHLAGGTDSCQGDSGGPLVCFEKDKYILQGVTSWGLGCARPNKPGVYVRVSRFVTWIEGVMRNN
# T4 sequence (P07477 whole entry): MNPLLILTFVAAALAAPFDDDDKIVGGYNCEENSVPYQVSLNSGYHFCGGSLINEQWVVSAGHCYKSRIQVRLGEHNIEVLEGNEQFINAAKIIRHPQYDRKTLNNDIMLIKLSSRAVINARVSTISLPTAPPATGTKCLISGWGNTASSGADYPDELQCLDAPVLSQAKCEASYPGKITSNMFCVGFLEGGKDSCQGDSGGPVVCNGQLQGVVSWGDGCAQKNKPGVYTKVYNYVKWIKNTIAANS
# T5 sequence (P00742 41-179 limits assumed): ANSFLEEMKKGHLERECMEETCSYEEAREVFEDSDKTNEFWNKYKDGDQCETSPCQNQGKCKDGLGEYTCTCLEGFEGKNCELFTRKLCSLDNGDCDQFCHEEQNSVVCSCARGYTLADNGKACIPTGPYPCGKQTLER
# T5 sequence (P00742 235-488 limits assumed): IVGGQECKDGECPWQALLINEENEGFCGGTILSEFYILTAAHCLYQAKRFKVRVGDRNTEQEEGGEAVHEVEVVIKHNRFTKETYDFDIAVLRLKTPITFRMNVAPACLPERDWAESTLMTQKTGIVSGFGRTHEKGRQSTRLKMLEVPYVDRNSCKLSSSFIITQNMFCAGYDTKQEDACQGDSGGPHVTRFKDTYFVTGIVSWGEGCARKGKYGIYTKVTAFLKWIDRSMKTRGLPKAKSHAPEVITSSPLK
Compound,Selectivity [2],Selectivity [4],Selectivity [5],Selectivity [7],Selectivity [8],Ki [11] [nM],also measured
N=C(N)c1ccc2nc(-c3cc(Cl)cc(-c4cccc(N)c4)c3O)[nH]c2c1,,,,,,78,Ki [9]: 4.2 nM; Ki [10]: 0.5 nM; Ki [12]: 3200 nM; Ki [13]: 0.46 nM; Ki [14]: 4700 nM
N=C(N)c1ccc2[nH]c(-c3cc(-c4nnn[nH]4)cc(-c4cccc([N+](=O)[O-])c4)c3O)cc2c1,,,,,,,Ki [15]: 50 nM
N=C(N)c1ccc2[nH]c(-c3cc(CC(=O)O)cc(-c4cccc(N)c4)c3O)cc2c1,27,6,83,550,26,12,
N=C(N)c1ccc2[nH]c(-c3cc(CC(=O)O)cc(-c4cccc(OP(=O)(O)O)c4)c3O)cc2c1,4,4,inactive,87,1,950,
N=C(N)c1ccc2[nH]c(-c3cc(CC(N)C(=O)O)cc(-c4cccc([N+](=O)[O-])c4)c3O)cc2c1 (stereo not given),3,1,5,,,,Ki [15]: 50 nM; 2x PT [1]: 0.73 µM; Selectivity [3]: 40; Selectivity [6]: 0.5
N=C(N)c1ccc2[nH]c(-c3cc(C(=O)O)cc(-c4cccc([N+](=O)[O-])c4)c3O)cc2c1,75,44,70,420,42,5,2x PT [16]: 4.1 µM
N=C(N)c1ccc2[nH]c(-c3cc(CC(=O)O)cc(-c4cccc(C(=O)O)c4)c3O)cc2c1,5,6,1,375,0.5,320,
N=C(N)c1cccc(-c2cc(CC(=O)O)cc(-c3cc4cc(C(=N)N)ccc4[nH]3)c2O)c1,3,0.6,2,140,4,430,

# Continued, in another order:
Selectivity [2],Selectivity [4],Selectivity [5],Selectivity [7],Selectivity [8],Ki [11] [nM],Compound,also measured
20,15,40,,,,N=C(N)c1ccc2[nH]c(-c3cc(-c4nn[nH]n4)cc(-c4cccc([N+](=O)[O-])c4)c3O)cc2c1,2x PT [1]: 16 µM; Selectivity [3]: 140; Selectivity [6]: 0.5
2,2,3,100,0.5,,N=C(N)c1ccc2[nH]c(-c3cc(CC(=O)O)cc(-c4cccc(-c5nn[nH]n5)c4)c3O)cc2c1,
,,,,,480,N=C(N)c1ccc2[nH]c(-c3cc(CC(=O)O)cc(-c4cccc(-c5nnn[nH]5)c4)c3O)cc2c1,
90,64,160,960,20,3,N=C(N)c1ccc2[nH]c(-c3cc(CC(=O)O)cc(-c4cccc([N+](=O)[O-])c4)c3O)cc2c1,2x PT [16]: 1.7 µM
33,21,63,870,5,3,N=C(N)c1ccc2[nH]c(-c3cc(CCOP(=O)(O)O)cc(-c4cccc([N+](=O)[O-])c4)c3O)cc2c1,2x PT [17]: inactive
17,4,3,112,5,33,N=C(N)c1ccc2[nH]c(-c3cc(CC(=O)O)cc(-c4cccc(Cl)c4)c3O)cc2c1,
6,1,1,49,4,41,N=C(N)c1ccc2[nH]c(-c3cc(CC(=O)O)cc(-c4ccccc4)c3O)cc2c1,
6,6,37,59,2,27,N=C(N)c1ccc2[nH]c(-c3cc(CCC(=O)O)cc(-c4cccc([N+](=O)[O-])c4)c3O)cc2c1,2x PT [16]: 2.2 µM
